Measured values from USRE39088E1, “Amide compounds and use of the same” (Japan Tobacco, Inc., priority 1995, dated 2006).
Where a name gives a salt, the structure may show the parent alone.

Columns and labels:
IL-8 = test: Suppression of production of inflammatory cytokines: IL-8 in LPS-stimulated human peripheral blood monocytes (ELISA); format: cell-based; settings: supernatant 20 hours after LPS
Method: Suppression of production of inflammatory cytokines
Thirty ml of human peripheral blood added with heparin was placed on Ficol-Paque (15 ml), and centrifuged at 400 G for 40 minutes at room temperature. The obtained monocyte fraction layers were collected and washed three times with E-MEM medium. The cells were adjusted to a final concentration of 0.5×10^5 cells/800 μl with RPMI-1640 medium containing 5% bovine fetal serum (2-mercaptoethanol), and seeded in a 24 well plant by 800 μl. A test sample (100 μl) was added and 100 μl of lipopolysarcharide (LPS, 100 μg/ml) was added one hour later. The supernatant was taken at 20 hours after stimulation with LPS, and amounts of various cytokines were determined using an ELISA kit.

ALT in blood = test: Suppression of LPS/D-galactosamine-induced hepatitis; format: in vivo; settings: Mus musculus, iv; dose 10 mg/kg, tail vein, 10 minutes before LPS/D-galactosamine; ALT in blood at 6 hours, male C57BL/6 mice
Method: Suppression of LPS/D-galactosamine-induced hepatitis
LPS (5 μg/kg)D-galactosamine (500 mg/kg) in physiological saline was intraperitoneally injected to male C57BL/6 mice to induce hepatitis. Six hours after the injection of LPS/D-galactosamine in physiological saline, blood was taken from the mice orbital venosus plexus. Plasma was separated from the blood, and ALT in blood was determined by a biochemical analyzer. The test sample was administered from the tail vein at 10 minutes before the injection of LPS/D-galactosamine in physiological saline, and the degree of suppression was investigated. The suppression by the test sample is shown in the ratio relative to the suppression in the control group.
Suppression (%)=100-(ALT amount of group treated with test sample/ALT amount of control group)×100

IC50 (IL-8; Homo sapiens, Monocyte, 20 h) | SMILES | also measured
8 µM | CNCCCCOc1ccc(C(=O)N[C@@H](Cc2ccccc2)C(=O)OC)c(O)c1Cl [Example 7] | –
0.4 µM | CNCCOc1c(Cl)cc(C(=O)N[C@@H](Cc2ccccc2)C(=O)OC)c(O)c1Cl [Example 11] | –
0.03 µM | CCNCCCCOc1c(Cl)cc(C(=O)N[C@@H](Cc2ccccc2)C(=O)OC)c(O)c1Cl [Example 16] | –
29 µM | CCOC(=O)C(Cc1ccccc1)N(C)C(=O)c1cc(Cl)c(OCCCCN)c(Cl)c1O (stereo not shown) [Example 20] | –
< 0.01 µM | CCOC(=O)C(Cc1ccccc1)NC(=O)c1cc(Cl)c(OCCCCNC)c(Cl)c1O (stereo not shown) [Example 21] | –
0.009 µM | CCOC(=O)C(Cc1ccccc1)NC(=O)c1cc(Cl)c(OCCCCCCCN)c(Cl)c1O (stereo not shown) [Example 26] | –
< 0.01 µM | CC(C)COC(=O)[C@H](Cc1ccccc1)NC(=O)c1cc(Cl)c(OCCCCN)c(Cl)c1O [Example 28] | –
< 0.01 µM | CNCCCCOc1c(Cl)cc(C(=O)N[C@@H](Cc2ccccc2)C(=O)OCC(C)C)c(O)c1Cl [Example 29] | –
0.6 µM | CC(C)(C)OC(=O)[C@H](Cc1ccccc1)NC(=O)c1cc(Cl)c(OCCCCN)c(Cl)c1O [Example 30] | –
2 µM | CNCCCCOc1c(Cl)cc(C(=O)N[C@@H](CC2CCCCC2)C(=O)OC)c(O)c1Cl [Example 34] | –
0.03 µM | CCOC(=O)COC(=O)[C@H](Cc1ccccc1)NC(=O)c1cc(Cl)c(OCCCCN)c(Cl)c1O [Example 43] | –
3 µM | CC1CCCC(C)C1OC(=O)[C@H](Cc1ccccc1)NC(=O)c1cc(Cl)c(OCCCCN)c(Cl)c1O (stereo partly shown) [Example 47] | –
0.2 µM | CN1CCC(OC(=O)[C@H](Cc2ccccc2)NC(=O)c2cc(Cl)c(OCCCCN)c(Cl)c2O)CC1 [Example 48] | –
0.02 µM | NCCCCOc1c(Cl)cc(C(=O)N[C@@H](Cc2ccccc2)C(=O)OC2C3CC4CC(C3)CC2C4)c(O)c1Cl (stereo partly shown) [Example 49] | –
< 0.01 µM | CN(C)CCCCOc1c(Cl)cc(C(=O)N[C@@H](Cc2ccccc2)C(=O)OCc2ccccc2)c(O)c1Cl [Example 55] | –
4 µM | CC(OC(=O)[C@H](Cc1ccccc1)NC(=O)c1cc(Cl)c(OCCCCN)c(Cl)c1O)N1CCNCC1 (stereo partly shown) [Example 56] | –
0.05 µM | NCCCCOc1c(Cl)cc(C(=O)N[C@@H](Cc2ccccc2)C(=O)ON=C2CCCCC2)c(O)c1Cl [Example 57] | –
0.02 µM | COC(=O)[C@H](Cc1ccccc1)NC(=O)c1cc(Cl)c(OCCN2CCN(C)CC2)c(Cl)c1O [Example 58] | –
– | COC(=O)[C@H](Cc1ccccc1)NC(=O)c1cc(Cl)c(OCCN2CCN[C@@H](C)C2)c(Cl)c1O [Example 61] | inhibition in vivo at 10 mg/kg (ALT in blood): 6%
0.1 µM | COC(=O)[C@H](Cc1ccccc1)NC(=O)c1cc(Cl)c(OCCN2CCN(C)C(C)C2)c(Cl)c1O (stereo partly shown) [Example 63] | –
0.05 µM | CCOC(=O)C(Cc1ccccc1)NC(=O)c1cc(Cl)c(OCCN2CCNCC2)c(Cl)c1O (stereo not shown) [Example 64] | –
0.05 µM | CCOC(=O)C(Cc1ccccc1)NC(=O)c1cc(Cl)c(OCCCN2CCNCC2)c(Cl)c1O (stereo not shown) [Example 67] | –
0.001 µM | CCOC(=O)C(Cc1ccccc1)NC(=O)c1cc(Cl)c(OCCCN2CCN(C)CC2)c(Cl)c1O (stereo not shown) [Example 68] | –
< 0.001 µM | CCOC(=O)C(Cc1ccccc1)NC(=O)c1cc(Cl)c(OCCC2CCNCC2)c(Cl)c1O (stereo not shown) [Example 69] | –
0.006 µM | CCOC(=O)C(Cc1ccccc1)NC(=O)c1cc(Cl)c(OCCC2CCN(C)CC2)c(Cl)c1O (stereo not shown) [Example 70] | –
0.04 µM | CCOC(=O)C(Cc1ccccc1)NC(=O)c1cc(Cl)c(OCCCCNC)cc1O (stereo not shown) [Example 71] | –
0.1 µM | CCOC(=O)C(Cc1ccccc1)NC(=O)c1cc(Cl)c(OCCCCN(C)C)cc1O (stereo not shown) [Example 72] | –
0.07 µM | CCOC(=O)C(Cc1ccccc1)NC(=O)c1cc(Br)c(OCCCCN)cc1O (stereo not shown) [Example 74] | –

IC50 (IL-8; Homo sapiens, Monocyte, 20 h) | SMILES | also measured
0.3 µM | CNCCCCOc1cc(O)c(C(=O)N[C@@H](Cc2ccccc2)C(=O)OC)cc1C [Example 76] | –
3 µM | CCOC(=O)C(Cc1ccccc1)NC(=O)c1cc(C)c(OCCCCNC)c(C)c1O (stereo not shown) [Example 77] | –
0.07 µM | CNCCCCOc1c(Cl)cc(C(=O)N[C@@H](Cc2ccccc2)C(=O)OCCN(C(C)C)C(C)C)c(O)c1Cl [Example 85] | –
0.2 µM | COC(=O)[C@H](Cc1ccccc1)NC(=O)c1cc(Cl)c(OCCCCO)c(Cl)c1O [Example 87] | –
– | CNCCCCc1ccc(C(=O)N[C@@H](Cc2ccccc2)C(=O)OC)c(O)c1 [Example 88, N-[2-Hydroxy-4-(4-methylaminobutyl)benzoyl]-L-phenylalanine methyl ester hydrochloride] | IC50 (IL-8; listed as Example No. 88, hydrochloride): 3 µM
0.6 µM | CNCCCCCc1ccc(C(=O)N[C@@H](Cc2ccccc2)C(=O)OC)c(O)c1 [Example 89] | –
– | CNCCCCc1ccc(C(=O)N[C@@H](Cc2ccccc2)C(=O)OC)c(O)c1 [Example 90] | IC50 (IL-8; listed as Example No. 90): 0.6 µM
0.001 µM | CNCCCCCc1c(Cl)cc(C(=O)N[C@@H](Cc2ccccc2)C(=O)OC)c(O)c1Cl [Example 91, N-[3,5-Dichloro-2-hydroxy-4-(5-methylaminopentyl)benzoyl]-L-phenylalanine methyl ester hydrochloride] | –
1 µM | CCOC(=O)C(Cc1ccccc1)NC(=O)c1cc(Cl)c(CCCCCN(C)C)cc1O (stereo not shown) [Example 94] | –
0.001 µM | CCOC(=O)C(Cc1ccccc1)NC(=O)c1cc(Cl)c(CCCC2CCN(C)CC2)c(Cl)c1O (stereo not shown) [Example 100] | –
0.003 µM | CCOC(=O)C(Cc1ccccc1)NC(=O)c1cc(Cl)c(CCCC2CCNCC2)c(Cl)c1O (stereo not shown) [Example 101] | –
0.002 µM | CCOC(=O)C(Cc1ccccc1)NC(=O)c1cc(Cl)c(CCCN2CCNCC2)c(Cl)c1O (stereo not shown) [Example 102] | –
0.7 µM | CCOC(=O)C(Cc1ccccc1)NC(=O)c1cc(Cl)c(CCCN2CCC(N)CC2)c(Cl)c1O (stereo not shown) [Example 103] | –
< 0.01 µM | CNCCCCOc1c(Cl)cc(C(=O)N[C@@H](Cc2ccccc2)C(=O)OC)c(OC(=O)COC(C)=O)c1Cl [Example 110] | –
< 0.01 µM | COC(=O)[C@H](Cc1ccccc1)NC(=O)c1cc(Cl)c(OCCN2CCNC(C)C2)c(Cl)c1OC(C)=O (stereo partly shown) [Example 122] | –
– | COC(=O)[C@H](Cc1ccccc1)NC(=O)c1cc(Cl)c(OCCN2CCN[C@@H](C)C2)c(Cl)c1OC(=O)c1ccccc1 [Example 123] | inhibition in vivo at 10 mg/kg (ALT in blood): 41%
0.01 µM | CCOC(=O)C(Cc1ccccc1)NC(=O)c1cc(Cl)c(OCCN2CCN(C)CC2)c(Cl)c1OC(C)=O (stereo not shown) [Example 125] | –
2 µM | CC1CN(CCOc2c(Cl)cc(C(=O)N[C@@H](Cc3ccccc3)C(=O)O)c(O)c2Cl)CCN1 (stereo partly shown) [Example 129] | –
0.2 µM | CN(C)CCCCCc1c(Cl)cc(C(=O)N[C@@H](Cc2ccccc2)C(=O)O)c(O)c1Cl [Example 133] | –
– | CN1CCN(CCOc2c(Cl)cc(C(=O)N[C@@H](Cc3ccccc3)C(=O)O)c(O)c2Cl)CC1 [Example 134] | IC50 (IL-8; Monocyte): 0.2 µM
0.2 µM | CNCCCCNc1c(Cl)cc(C(=O)N[C@@H](Cc2ccccc2)C(=O)OC)c(O)c1Cl [Example 136, N-[3,5-Dichloro-2-hydroxy-4-(4-methylaminobutylamino)benzoyl]-L-phenylalanine methyl ester dihydrochloride] | –
4 µM | NCCCCOc1c(Cl)cc(C(=O)N[C@@H](Cc2ccccc2)C(N)=O)c(O)c1Cl [Example 139] | –
3 µM | NCCCCOc1c(Cl)cc(C(=O)N[C@@H](Cc2ccccc2)C(=O)Nc2ccc(F)cc2)c(O)c1Cl [Example 141] | –
0.4 µM | NCCCCOc1c(Cl)cc(C(=O)N[C@@H](Cc2ccccc2)C(=O)Nc2ccccn2)c(O)c1Cl [Example 142] | –
– | CNCCCCOc1c(Cl)cc(C(=O)N[C@@H](Cc2ccccc2)C(=O)NO)c(O)c1Cl [Example 143, N-[3,5-Dichloro-2-hydroxy-4-(4-methylaminobutoxy)benzoyl]-L-phenylalanylhydroxyamide] | IC50 (IL-8): 3 µM
7 µM | CCOC(=O)[C@H](Cc1ccccc1)NC(=O)c1ccc2oc(SCCCNC)nc2c1 [Example 152, (2S)-2-[2-(3-Methylaminopropylsulfanyl)benzoxazole-5-carbonyl-amino]-3-phenylpropionic acid ethyl ester hydrochloride] | –
2 µM | CCOC(=O)C(Cc1ccccc1)NC(=O)c1cc(Cl)c(OC(=O)C2(CC)CCNCC2)cc1O (stereo not shown) [Example 156] | –

SMILES | IC50 (IL-8; Homo sapiens, Monocyte, 20 h) | also measured
Cc1noc([C@H](Cc2ccccc2)NC(=O)c2cc(Cl)c(OCCCCN)c(Cl)c2O)n1 [Example 144, N-[4-(4-Aminobutoxy)-3,5-dichloro-2-hydroxybenzoyl]-1-(3-methyl-1,2,4-oxadizaol-5-yl)-2-phenylethylamine hydrochloride] | 29 µM | –
COC(=O)[C@H](Cc1ccccc1)NC(=O)c1cc2cccc(OCCCCN)c2cc1O [Example 146, (2S)-3-Phenyl-2-[5-(4-aminobutoxy)-3-hydroxy-2-naphthoylamino]-propionic acid methyl ester hydrochloride] | 5 µM | –
CCOC(=O)[C@H](Cc1ccccc1)NC(=O)c1ccc(-c2ccc(OCCCCNC)cc2)cc1 [Example 147, N-[4-[4-(4-Methylaminobutoxy)phenyl]benzoyl]-L-phenylalanine ethyl ester hydrochloride] | 2 µM | –
